Source: PubChem BioAssay AID330 (DTP/NCI, 2004)
Values joined by “and” are separate entries in the source; they are usually repeats but may differ in a detail not shown here. Equal values may be shown once. Inconclusive results and toxic doses are left out.

Tested on: P388 leukemia ip, CD2F1 mice, survival T/C
Test: NCI In Vivo Anticancer Drug Screen. Data for tumor model P388 Leukemia (intraperitoneal) in CD2F1 (CDF1) mice
Settings: endpoint: median survival time, higher = longer survival
In short: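 Mice carrying the transplanted tumor received test compound or vehicle. Survival was recorded in each group, and the value is the treated-group measurement divided by that of the vehicle-treated control group.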

[1] = dose: 50.0 mg/kg/injection, schedule: Q01DX009 (ip), vehicle: saline with Tween-80
[2] = dose: 100.0 mg/kg/injection, schedule: Q01DX009 (ip), vehicle: saline with Tween-80
[3] = dose: 200.0 mg/kg/injection, schedule: Q01DX009 (ip), vehicle: saline with Tween-80
[4] = dose: 12.5 mg/kg/injection, schedule: Q01DX009 (ip), vehicle: saline
[5] = dose: 25.0 mg/kg/injection, schedule: Q01DX009 (ip), vehicle: saline with Tween-80
[6] = dose: 50.0 mg/kg/injection, schedule: Q01DX009 (ip), vehicle: saline
[7] = dose: 25.0 mg/kg/injection, schedule: Q01DX009 (ip), vehicle: other
[8] = dose: 50.0 mg/kg/injection, schedule: Q01DX009 (ip), vehicle: other
[9] = dose: 60.0 mg/kg/injection, schedule: Q01DX005 (ip), vehicle: saline with Tween-80
[10] = dose: 120.0 mg/kg/injection, schedule: Q01DX005 (ip), vehicle: saline with Tween-80
[11] = dose: 240.0 mg/kg/injection, schedule: Q01DX005 (ip), vehicle: saline with Tween-80
[12] = dose: 50.0 mg/kg/injection, schedule: Q01DX009 (ip), vehicle: Klucel (hydroxypropylcellulose) (HPC)
[13] = dose: 100.0 mg/kg/injection, schedule: Q01DX009 (ip), vehicle: Klucel (hydroxypropylcellulose) (HPC)

Structure (SMILES): CCC1(CN(C)C)C(=O)N(C)C(=O)N(C2CCCCC2)C1=O (stereo not drawn)
- T/C [1]: 96 % of control
- T/C [2]: 102 % of control
- T/C [3]: 107 % of control

Structure (SMILES): CN(C)/N=N/c1ccn[nH]1
- T/C (dose: 3.12 mg/kg/injection, schedule: Q01DX005 (ip), vehicle: saline with Tween-80): 121 % of control
- T/C (dose: 3.12 mg/kg/injection, schedule: Q01DX009 (ip), vehicle: saline with Tween-80): 104 % of control
- T/C (dose: 3.13 mg/kg/injection, schedule: Q01DX009 (ip), vehicle: saline): 97 % of control
- T/C (dose: 6.25 mg/kg/injection, schedule: Q01DX005 (ip), vehicle: saline with Tween-80): 121 % of control
- T/C (dose: 6.25 mg/kg/injection, schedule: Q01DX009 (ip), vehicle: saline with Tween-80): 107 % of control
- T/C (dose: 6.25 mg/kg/injection, schedule: Q01DX009 (ip), vehicle: saline): 87 % of control
- T/C (dose: 12.5 mg/kg/injection, schedule: Q01DX005 (ip), vehicle: saline with Tween-80): 118 % of control
- T/C [4]: 92 % of control
- T/C (dose: 25.0 mg/kg/injection, schedule: Q01DX005 (ip), vehicle: saline with Tween-80): 121 % of control
- T/C [5]: 121 % of control
- T/C (dose: 25.0 mg/kg/injection, schedule: Q01DX009 (ip), vehicle: saline): 113 % of control
- T/C [1]: 122 % of control
- T/C [6]: 101 % of control

Structure (SMILES): CC(=O)NCC1(C)CCCC2(C)C3=CC(=O)C(C(C)C)=CC3(O)CCC12 (stereo not drawn)
- T/C (dose: 100.0 mg/kg/injection, schedule: Q01DX001 (ip), vehicle: Klucel (hydroxypropylcellulose) (HPC)): 98 % of control
- T/C (dose: 200.0 mg/kg/injection, schedule: Q01DX001 (ip), vehicle: Klucel (hydroxypropylcellulose) (HPC)): 90 % of control
- T/C (dose: 400.0 mg/kg/injection, schedule: Q01DX001 (ip), vehicle: Klucel (hydroxypropylcellulose) (HPC)): 94 % of control

Structure (SMILES): NC(=O)Nc1ccc(/C=C\c2ccnc3ccccc23)cc1
- T/C (dose: 25.0 mg/kg/injection, schedule: Q04DX003 (ip), vehicle: saline with Tween-80): 96 % of control
- T/C (dose: 50.0 mg/kg/injection, schedule: Q04DX003 (ip), vehicle: saline with Tween-80): 93 % of control
- T/C (dose: 100.0 mg/kg/injection, schedule: Q04DX003 (ip), vehicle: saline with Tween-80): 89 % of control

Structure (SMILES): COc1cc(/C=N/NC(=O)c2ccc(NC(C)=O)cc2)ccc1O
- T/C (dose: 50.0 mg/kg/injection, schedule: Q01DX005 (ip), vehicle: Klucel (hydroxypropylcellulose) (HPC)): 90 % of control
- T/C (dose: 100.0 mg/kg/injection, schedule: Q01DX005 (ip), vehicle: Klucel (hydroxypropylcellulose) (HPC)): 90 % of control
- T/C (dose: 200.0 mg/kg/injection, schedule: Q01DX005 (ip), vehicle: Klucel (hydroxypropylcellulose) (HPC)): 90 % of control

Structure (SMILES): Nc1nn(-c2ccc(Br)cc2)c2cccc[n+]12
- T/C (dose: 12.5 mg/kg/injection, schedule: Q01DX009 (ip), vehicle: saline with Tween-80): 105 % of control
- T/C [7]: 115 % of control
- T/C [5]: 100 % of control
- T/C [8]: 97 % of control
- T/C [1]: 100 % of control and 97 % of control

Structure (SMILES): O=c1[nH]c2ccc(O)cc2o1
- T/C [9]: 108 % of control
- T/C [10]: 95 % of control
- T/C [11]: 100 % of control

Structure (SMILES): O=C1c2ccccc2C(=O)C1NOCCCCl
- T/C (dose: 60.0 mg/kg/injection, schedule: Q01DX005 (ip), vehicle: Klucel (hydroxypropylcellulose) (HPC)): 100 % of control
- T/C (dose: 120.0 mg/kg/injection, schedule: Q01DX005 (ip), vehicle: Klucel (hydroxypropylcellulose) (HPC)): 99 % of control
- T/C (dose: 240.0 mg/kg/injection, schedule: Q01DX005 (ip), vehicle: Klucel (hydroxypropylcellulose) (HPC)): 101 % of control

Structure (SMILES): Cc1ccc(S(=O)(=O)NCCN(C)C)cc1
- T/C [12]: 99 % of control
- T/C [13]: 99 % of control
- T/C (dose: 200.0 mg/kg/injection, schedule: Q01DX009 (ip), vehicle: Klucel (hydroxypropylcellulose) (HPC)): 102 % of control
- T/C (dose: 400.0 mg/kg/injection, schedule: Q01DX009 (ip), vehicle: Klucel (hydroxypropylcellulose) (HPC)): 101 % of control

Structure (SMILES): COC(=O)Cn1ccnc1[N+](=O)[O-]
- T/C (dose: 12.5 mg/kg/injection, schedule: Q01DX009 (ip), vehicle: distilled water + Tween-80): 100 % of control
- T/C (dose: 25.0 mg/kg/injection, schedule: Q01DX009 (ip), vehicle: distilled water + Tween-80): 93 % of control
- T/C (dose: 50.0 mg/kg/injection, schedule: Q01DX009 (ip), vehicle: distilled water + Tween-80): 93 % of control
- T/C (dose: 100.0 mg/kg/injection, schedule: Q01DX009 (ip), vehicle: distilled water + Tween-80): 93 % of control
- T/C (dose: 200.0 mg/kg/injection, schedule: Q01DX009 (ip), vehicle: distilled water + Tween-80): 90 % of control

Structure (SMILES): Clc1ccccc1CN1COc2c(ccc3ccccc23)C1
- T/C (dose: 100.0 mg/kg/injection, schedule: Q04DX003 (ip), vehicle: Klucel (hydroxypropylcellulose) (HPC)): 95 % of control
- T/C (dose: 200.0 mg/kg/injection, schedule: Q04DX003 (ip), vehicle: Klucel (hydroxypropylcellulose) (HPC)): 100 % of control
- T/C (dose: 400.0 mg/kg/injection, schedule: Q04DX003 (ip), vehicle: Klucel (hydroxypropylcellulose) (HPC)): 104 % of control

Structure (SMILES): O=c1n(-c2ccccc2)c(=O)n2n1C1C3C4CCC1C4(Cl)C32 (stereo not drawn)
- T/C (dose: 100.0 mg/kg/injection, schedule: Q01DX001 (ip), vehicle: saline with Tween-80): 100 % of control
- T/C (dose: 200.0 mg/kg/injection, schedule: Q01DX001 (ip), vehicle: saline with Tween-80): 94 % of control
- T/C (dose: 400.0 mg/kg/injection, schedule: Q01DX001 (ip), vehicle: saline with Tween-80): 91 % of control

Structure (SMILES): CCOC(=O)CC(=O)C(F)(F)F.[Cu+2]
- T/C (dose: 2.5 mg/kg/injection, schedule: Q01DX009 (ip), vehicle: saline with Tween-80): 100 % of control
- T/C (dose: 5.0 mg/kg/injection, schedule: Q01DX009 (ip), vehicle: saline with Tween-80): 115 % of control
- T/C (dose: 10.0 mg/kg/injection, schedule: Q01DX009 (ip), vehicle: saline with Tween-80): 110 % of control

Structure (SMILES): OCc1ccn2c1C(O)CC2 (stereo not drawn)
- T/C [4]: 124 % of control
- T/C [6]: 113 % of control
- T/C (dose: 100.0 mg/kg/injection, schedule: Q01DX009 (ip), vehicle: saline): 201 % of control
- T/C (dose: 200.0 mg/kg/injection, schedule: Q01DX009 (ip), vehicle: saline): 157 % of control

Structure (SMILES): COc1cc(C(NC(N)=O)c2cc3c(cc2O)OCO3)cc(OC)c1OC (stereo not drawn)
- T/C [9]: 106 % of control
- T/C [10]: 102 % of control
- T/C [11]: 100 % of control

Structure (SMILES): COc1cc2c(C)nc3c4cc5c(cc4ccc3c2cc1OC)OCO5
- T/C (dose: 25.0 mg/kg/injection, schedule: Q01DX009 (ip), vehicle: water): 108 % of control
- T/C (dose: 50.0 mg/kg/injection, schedule: Q01DX009 (ip), vehicle: water): 95 % of control

Structure (SMILES): COc1ccc(Cc2c3cc(OC)c(OC)cc3cc(=O)n2C)cc1OC
- T/C [12]: 106 % of control
- T/C [13]: 106 % of control

Structure (SMILES): COc1cc2c(cc1OC)C(C#N)N(C(=O)c1ccccc1)C=C2 (stereo not drawn)
- T/C (dose: 0.1 mg/kg/injection, schedule: Q01DX009 (ip), vehicle: water): 98 % of control
- T/C (dose: 0.19 mg/kg/injection, schedule: Q01DX009 (ip), vehicle: water): 100 % of control
- T/C (dose: 0.38 mg/kg/injection, schedule: Q01DX009 (ip), vehicle: water): 98 % of control
- T/C (dose: 0.75 mg/kg/injection, schedule: Q01DX009 (ip), vehicle: water): 100 % of control
- T/C (dose: 1.5 mg/kg/injection, schedule: Q01DX009 (ip), vehicle: water): 100 % of control

Structure (SMILES): NC(=O)Oc1cccc(OC(N)=O)c1
- T/C [7]: 103 % of control
- T/C [8]: 111 % of control
- T/C (dose: 50.0 mg/kg/injection, schedule: Q04DX003 (ip), vehicle: other): 95 % of control
- T/C (dose: 100.0 mg/kg/injection, schedule: Q01DX009 (ip), vehicle: other): 113 % of control
- T/C (dose: 200.0 mg/kg/injection, schedule: Q01DX009 (ip), vehicle: other): 113 % of control
- T/C (dose: 200.0 mg/kg/injection, schedule: Q04DX003 (ip), vehicle: other): 98 % of control

Structure (SMILES): O=C(O)C(Cc1ccccc1N(CCO)CCO)N1C(=O)c2ccccc2C1=O (stereo not drawn)
- T/C [5]: 99 % of control
- T/C [1]: 93 % of control
- T/C [2]: 93 % of control
- T/C [3]: 96 % of control

Structure (SMILES): FC(F)(F)COP(OCC(F)(F)F)c1ccccc1
- T/C (dose: 50.0 mg/kg/injection, schedule: Q01DX005 (ip), vehicle: saline with Tween-80): 106 % of control
- T/C (dose: 100.0 mg/kg/injection, schedule: Q01DX005 (ip), vehicle: saline with Tween-80): 111 % of control
- T/C (dose: 200.0 mg/kg/injection, schedule: Q01DX005 (ip), vehicle: saline with Tween-80): 111 % of control
